Patent US11085056B2, “Transfection complexes and methods of using the same” (MOLECULAR TRANSFER, INC., priority 2015, dated 2021)

Columns and labels:
Human Fibroblast Cells = experiment: Transfection of human fibroblast cells with DOTMA/DOPE/peptide and eGFP plasmid, fluorescent plate reader; type: cell-based; conditions: DOTMA/DOPE 1:1 plus peptide with RRRRRRRRRRRR (SEQ ID NO: 109) at n terminus; EF1Alpha eGFP plasmid; 0.01 mL complex; 42 hours
Procedure, shortened: (§1)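 Cells at 60-70% confluence got DOTMA/DOPE (1:1) mixed with peptides bearing an N-terminal R12 DNA-binding tag, complexed 10 min with EF1α-eGFP plasmid (5 μg/mL in OptiMEM); 0.01 or 0.02 mL complex per well. After 42 h at 37 °C, GFP read by fluorescence plate reader and % transfected cells by microscopy, relative to lipid without peptide.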

C2C12 Cells = experiment: Transfection of C2C12 cells with DOTMA/DOPE/peptide and eGFP plasmid, fluorescent plate reader; type: cell-based, mouse; conditions: DOTMA/DOPE 1:1 plus peptide with RRRRRRRRRRRR (SEQ ID NO: 109) at n terminus; EF1Alpha eGFP plasmid; 0.02 mL complex; 42 hours
Procedure, shortened: as §1

NL-1 iPS Cells = experiment: Transfection of NL-1 iPS cells with DOTMA/DOPE/peptide and eGFP plasmid, fluorescent plate reader; type: cell-based; conditions: DOTMA/DOPE 1:1 plus peptide with RRRRRRRRRRRR (SEQ ID NO: 109) at n terminus; EF1Alpha eGFP plasmid; 42 hours
some examined cell types = experiment: Transfection expression and % cells transfected over the no peptide control; type: cell-based; conditions: on some examined cell types
Procedure, shortened: as §1

HuVec Cells = experiment: Transfection of HuVec cells with DOTMA/DOPE/peptide and eGFP plasmid, fluorescent plate reader; type: cell-based; conditions: DOTMA/DOPE 1:1 plus peptide with RRRRRRRRRRRR (SEQ ID NO: 109) at n terminus; EF1Alpha eGFP plasmid; 0.01 mL complex; 42 hours
Procedure, shortened: as §1

HeLa Cells [1] = experiment: Transfection of HeLa cells with DOTMA/SEQ ID NO: 72/peptide compared with Lipofectamine 2000; type: cell-based; conditions: fusogenic peptide 0.1 mg/mL
Procedure, shortened: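 HeLa cells at 60–70% confluence received 0.01 mL of complexes of EF1Alpha eGFP plasmid (5 μg/mL in OptiMEM) with DOTMA/DOPE (1:1) plus R12-linked peptide, with fusogenic peptide at 0.1 mg/mL final. GFP read by fluorescence plate reader and microscopy (% cells transfected) after 42 h at 37 °C.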

HeLa Cells [2] = experiment: Transfection of HeLa cells with DOTMA/DOPE/peptide and eGFP plasmid, fluorescent plate reader; type: cell-based; conditions: DOTMA/DOPE 1:1 plus peptide with RRRRRRRRRRRR (SEQ ID NO: 109) at n terminus; EF1Alpha eGFP plasmid; 0.01 mL complex; 42 hours
Procedure, shortened: as §1

Jurkat Cells = experiment: Transfection of Jurkat cells with DOTMA/DOPE/peptide and eGFP plasmid, fluorescent plate reader; type: cell-based; conditions: DOTMA/DOPE 1:1 plus peptide with RRRRRRRRRRRR (SEQ ID NO: 109) at n terminus; EF1Alpha eGFP plasmid; 0.02 mL complex; 42 hours
Procedure, shortened: as §1

348 (HQQDLGTAGSCLRKFSTM; Peptidic transfection agent) [compound 348]
RF (Relative Fluorescence) of Transfection of Human Fibroblast Cells (Human Fibroblast Cells): 11802
RF (Relative Fluorescence) of Transfection of C2C12 Cells (C2C12 Cells): 8625
RF (Relative Fluorescence) of Transfection of NL-1 iPS Cells (NL-1 iPS Cells): 21645
transfection expression and the % cells transfected over the no peptide control (some examined cell types): increased
RF (Relative Fluorescence) of Transfection of HuVec Cells (HuVec Cells): 21214
RF (Relative Fluorescence), DOTMA/SEQ ID NO: 72/Peptide, HeLa Cells (HeLa Cells [1]; 0.1 μL of DOTMA/SEQ ID NO: 72/Peptide in well of a 96 well plate): 17413
RF (Relative Fluorescence), DOTMA/SEQ ID NO: 72/Peptide, HeLa Cells (HeLa Cells [1]; 0.2 μL of DOTMA/SEQ ID NO: 72/Peptide in well of a 96 well plate): 18615
RF (Relative Fluorescence), DOTMA/SEQ ID NO: 72/Peptide, HeLa Cells (HeLa Cells [1]; 0.3 μL of DOTMA/SEQ ID NO: 72/Peptide in well of a 96 well plate): 16164
RF (Relative Fluorescence), DOTMA/SEQ ID NO: 72/Peptide, HeLa Cells (HeLa Cells [1]; 0.4 μL of DOTMA/SEQ ID NO: 72/Peptide in well of a 96 well plate): 15054
RF (Relative Fluorescence) of Transfection of HeLa Cells (HeLa Cells [2]): 22289
RF (Relative Fluorescence) of Transfection of Jurkat Cells (Jurkat Cells): 15585
